# Test results reported in US20250170224A1, “METHODS AND COMPOSITIONS FOR TREATING MICROGLIAL DYSFUNCTION AND IMPROVING METABOLIC DYSFUNCTION” (Ultimate Medicine AG, priority 2021, published 2025).
# “Also recorded” adds a separate entry of the source.
# Legend:
# microglia = type: in vivo
# Experimental: Mice of the aged group in the nontargeted metabolomics analysis were 17-18 months old. Except for nontargeted metabolomics and microbiota profiling, where only male mice were used, all groups included mice from both sexes. Mice were housed under a 12-hour light/12-hour dark cycle and temperatures of 18-23° C. with 40-60% humidity, with food and water given ad libitum. To avoid cage effects, mice from at least three different cages per experimental group were analyzed. […] For modulation of CML in aged animals, 18-month-old SPF housed C57BL/6 mice were treated orally every third day for 10 weeks with vehicle (20% hydroxypropyl-p-cyclodextrin in 1× phosphate-buffered saline (PBS)), 10 mg kg^−1 ellagic acid (EA) or 3,000 U kg^−1 intestinal alkaline phosphatase (IAP). To assess in vivo intestinal permeability, tracer fluorescein isothiocyanate (FITC)-labeled dextran (4 kDa: Sigma-Aldrich) was used. Briefly, mice were deprived of food 4 hours before and both food and water 4 hours after oral gavage using 200 μl of 80 mg ml^−1 FITC-dextran. Blood was collected retro-orbitally after 4 hours and fluorescence intensity was measured on fluorescence plates using an excitation wavelength of 493 nm and an emission wavelength of 518 nm. To assess in vivo intestinal permeability to CML, mice were treated with […] CML (0.36 mM). Blood was collected retro-orbitally immediately before and 4 hours after treatment. CML translocated into the circulation was measured by liquid chromatography-mass spectrometry (LC-MS). All animal experiments were approved by the local administration in Germany (Regierungsprasidium Freiburg) and were performed in accordance with the respective national, federal, and institutional regulations and the guidelines of the Federation of European Laboratory Animal Science Associations.
# Mice were lethally anesthetized with ketamine (100 mg kg^−1 body weight) and xylazine (10 mg kg^−1 body weight) followed by perfusion with 1×PBS through the left heart chamber. For histology, brains were kept overnight in 4% paraformaldehyde (PFA). For flow cytometry and magnetic-activated cell sorting (MACS) beads cell sorting, brains were dissected, homogenized and filtered through a […] mesh. […] Myelin was removed from the top layer and the cell pellet was washed once with 1×PBS followed by antibody staining.
# Brain specimens from the cortex were first fixed overnight in 3% glutaraldehyde at 4° C., washed with Sorensen buffer, and then transferred to 1% osmium tetroxide for 2 hours at room temperature. Next, samples were dehydrated by a graded series of ethanol (30-100%) followed by 100% propylene oxide, resin/propylene oxide (1:2 (v/v)) and resin/propylene oxide (2:1 (v/v)). Samples were embedded in resin via polymerization for 24 hours at 75° C. Then, 700-nm semithin sections were cut and stained with 2% toluidine blue to define the region of interest for further preparation of 70 nm ultrathin sections using an ultramicrotome (Leica Reichert Ultracut S) after contrasting the sections with uranyl acetate and lead citrate (Leica Reichert Ultrastainer). To assess the mitochondrial phenotype in microglia, images were acquired with a ×7,900 or ×46,000 magnification using a CM100 electron microscope (Philips).
# Cell sorting for RT-qPCR and RNA sequencing (RNA-seq) was performed on a MoFlo Astrios (Beckman Coulter; FIG. 7a). Before surface staining, dead cells were excluded by using the Fixable Viability Dye eFluor 780 (1:1,000 dilution; Thermo Fisher Scientific) followed by incubation with Fc receptor blocking antibody CD16/CD32 (1:200 dilution, clone 2.4G2; BD Bioscience). […] To assess microglial cellular reactive oxidative species (ROS), the CellROX DeepRed Reagent ([…]; Thermo Fisher Scientific) was used. To assess mitochondrial activity, Tetramethylrhodamine, Methyl Ester, Perchlorate (50 nM; Thermo Fisher Scientific) and MitoTracker Green FM (20 nM; Thermo Fisher Scientific) were used.
# [1] = system: bone marrow-derived macrophages (BMDMs); test: Bone marrow derived macrophages incubated with increasing concentrations of CML for 48 hours; type: cell-based, murine; settings: in vitro, increasing concentrations of CML (0.1 pM, 1 pM, 10 pM, 100 pM, 1 mM)
# Experimental: Cells were cultured at 37° C. and 5% CO2 in a humidified incubator. Murine BMDMs were differentiated from tibial and femoral bone marrow aspirates. Recombinant murine macrophage colony-stimulating factor (Immunotools) was used at 20 ng ml^−1. After 7 days of differentiation, BMDMs were seeded in 24-well plates with 5×10^5 cells per well in triplicates. The medium was switched to serum-free medium 6 hours before the experiment. Cells were incubated with increasing concentrations of CML (untreated, 0.1 pM, 1 pM, 10 pM, 100 pM, 1 mM) for 48 hours, then collected for measurements.
# Cell sorting for RT-qPCR and RNA sequencing (RNA-seq) was performed on a MoFlo Astrios (Beckman Coulter; FIG. 7a). Before surface staining, dead cells were excluded by using the Fixable Viability Dye eFluor 780 (1:1,000 dilution; Thermo Fisher Scientific) followed by incubation with Fc receptor blocking antibody CD16/CD32 (1:200 dilution, clone 2.4G2; BD Bioscience). The following antibodies were used for surface staining: anti-CD45 (1:200 dilution, clone 30-F11; Thermo Fisher Scientific); anti-CD11b (1:200 dilution, clone MI/70; Thermo Fisher Scientific). The following lineage antibodies were used (all at 1:300 dilution): anti-CD3 (clone 17A2; BioLegend); anti-CD19 (clone 6D5; BioLegend); anti-CD45R (clone RA3-6B2; BD Biosciences); Ly6C (clone AL-21; BD Biosciences); Ly6G (clone 1A8; BD Biosciences). […]
# [2] = young-adult mice, i.p. once per day for two weeks
smiles,measurement,setting,value
"N[C@@H](CCCCNCC(=O)O)C(=O)O [CML, N^6-carboxymethyllysine]",brain CML concentrations after intraperitoneal injection of CML,"microglia; young-adult SPF mice, targeted metabolomics",increased brain CML concentrations
same,damage to mitochondrial structures in microglia (electron microscopy),microglia; young-adult mice treated with CML i.p.,caused mitochondrial dysfunction by directly inflicting damage to mitochondrial structures
same,microglial gene expression (RNA-seq) after intraperitoneal injection,"microglia; young-adult mice, CML versus vehicle","upregulated the expression of the ROS-related genes S100a9 and S100A8; also recorded: upregulated the expression of the ROS-related genes, S100a9 and S100A8"
same,cellular ATP stores in microglia,microglia; [2],reduced cellular ATP stores
same,metabolic function (metabolic/mitochondrial activity) of microglia,microglia; [2],decreased metabolic activity
same,recapitulation of the changes found in the microglia of aged mice,microglia; [2],partially recapitulate the changes found in the microglia of aged mice
same,intracellular ROS production / oxidative stress in microglia,"microglia; young-adult mice, i.p. once per day for two weeks, CellROX",increased oxidative stress
same,metabolic activity (mitochondrial activity) in BMDMs,[1],decreased metabolic activity
same,oxidative stress (cellular ROS) in BMDMs,[1],dose-dependent increase in oxidative stress
